Data on 9 molecules can be found in PubChem BioAssay (NCI).

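48-hour exposure; five concentrations; linearly interpolated endpoints. TGI is the concentration that stops growth completely.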

Among the test systems are OVCAR-8 ovarian; HCC-2998 colon; HCT-15 colon; COLO 205 colon; EKVX NSCLC; OVCAR-4 ovarian; M14 melanoma; HL-60(TB) leukemia; K-562 leukemia; LOX IMVI melanoma; OVCAR-3 ovarian; TK-10 renal; SK-OV-3 ovarian; SR leukemia; 786-0 renal; UACC-62 melanoma; SN12C renal; HT29 colon; T-47D breast; HS 578T breast.
Common to all, as to assay: NCI-60 cell line screen, 48 h

With `CC(=O)OC1CC2C(C)(C)C(=O)C=C[C@]2(C)C2CCC3(C)C(c4ccoc4)[C@@H](O)[C@H]4O[C@]43[C@]12C` (stereo not given in full), the TGI was 36.2 µM in the assay with OVCAR-8 ovarian; 29.6 µM in the assay on HCC-2998 colon; 31.2 µM in the assay on HCT-15 colon; 37.6 µM in the assay with COLO 205 colon; over 100 µM in the assay on EKVX NSCLC; 38.8 µM in the assay with OVCAR-4 ovarian. Moreover, the TGI was found to be 37.7 µM in the assay with M14 melanoma; 46.7 µM with HL-60(TB) leukemia; 39.5 µM in the assay with K-562 leukemia; 31.3 µM in the assay with LOX IMVI melanoma; 31.8 µM in the assay with OVCAR-3 ovarian; 88.7 µM in the assay on TK-10 renal. Moreover, the TGI came out at 42.5 µM in the assay with SK-OV-3 ovarian; 41.4 µM with SR leukemia; 31.4 µM with 786-0 renal; 32.5 µM in the assay on UACC-62 melanoma; 34.1 µM in the assay with SN12C renal; 40.3 µM with HT29 colon.

Take `CN(C)C1(N(C)C)Oc2c(c(=O)n(C)c(=O)n2C)C(c2ccccc2Br)C1(F)F` (stereo not given): the TGI with HCC-2998 colon, in the assay with HCT-15 colon, in the assay with COLO 205 colon, with EKVX NSCLC, in the assay on OVCAR-4 ovarian and in the assay on M14 melanoma was over 100 µM each time. The TGI in the assay with K-562 leukemia, with T-47D breast, with LOX IMVI melanoma, in the assay on OVCAR-3 ovarian, in the assay with TK-10 renal and with SK-OV-3 ovarian was over 100 µM in each case. For the same molecule, the TGI in the assay with 786-0 renal and in the assay with UACC-62 melanoma was over 100 µM each time.

In the case of `C=C(Br)C(C)(Br)CCC(Br)C(C)(C)Br` (stereo not given), the TGI in the assay on OVCAR-8 ovarian is 33.3 µM; in the assay on HCT-15 colon it was over 100 µM; with COLO 205 colon, 35.8 µM; in the assay with OVCAR-4 ovarian it was over 100 µM; with M14 melanoma, 61.3 µM; in the assay on HL-60(TB) leukemia, 62.3 µM. Further, the TGI with K-562 leukemia was over 100 µM; in the assay with LOX IMVI melanoma, 31 µM; in the assay on TK-10 renal it was over 100 µM; in the assay on SK-OV-3 ovarian, over 100 µM; in the assay with SR leukemia, 54.7 µM; with 786-0 renal it was 44.5 µM. Further, the TGI with UACC-62 melanoma was 45.1 µM; in the assay on SN12C renal it was 52.4 µM; with HT29 colon it was over 100 µM.

Regarding `CC1=CC(=O)c2c(C=O)c(O)c(O)c(C(C)C)c2C1=O`, the TGI was over 56.5 µM with OVCAR-8 ovarian; over 94.5 µM in the assay with HCC-2998 colon; over 100 µM in the assay with HCT-15 colon; 57.4 µM in the assay with COLO 205 colon; 23.8 µM with OVCAR-4 ovarian; over 100 µM in the assay with M14 melanoma. Moreover, the TGI with HL-60(TB) leukemia was over 79.5 µM; with K-562 leukemia it was over 100 µM; with LOX IMVI melanoma it was 27.6 µM; with SK-OV-3 ovarian it was over 100 µM; in the assay with SR leukemia, over 74.4 µM; in the assay on 786-0 renal, 45.5 µM. In addition, the TGI with UACC-62 melanoma was 56.4 µM; in the assay on SN12C renal, over 100 µM.

On to `CSc1nc2c(c(=O)[nH]1)N=C(c1ccc(Cl)cc1)CC(c1ccccc1)N2` (stereo not given), for which the TGI was 31.4 µM in the assay on OVCAR-8 ovarian; 28.8 µM with HCC-2998 colon; 34 µM with COLO 205 colon; 40.9 µM in the assay with EKVX NSCLC; 23.6 µM in the assay on OVCAR-4 ovarian; 29.9 µM in the assay with M14 melanoma. Also, the TGI is 39.6 µM in the assay with HL-60(TB) leukemia; 44.9 µM with K-562 leukemia; 44.2 µM in the assay with LOX IMVI melanoma; 28.5 µM in the assay on OVCAR-3 ovarian; over 100 µM in the assay on SR leukemia; 30 µM in the assay with 786-0 renal. In addition, the TGI with SN12C renal was 30 µM; in the assay with HT29 colon, 31.4 µM.

Consider `CN(C)CCNC1=CC(=O)c2nc3ccccc3c3ccnc1c23`, for which the TGI came to 37.5 µM in the assay on OVCAR-8 ovarian; 16.8 µM in the assay on HCC-2998 colon; 20.3 µM in the assay with HCT-15 colon; 9.21 µM with COLO 205 colon; 14.3 µM in the assay with EKVX NSCLC; 16.6 µM in the assay on OVCAR-4 ovarian. The TGI in the assay on M14 melanoma was 21.6 µM; in the assay with HL-60(TB) leukemia it was 16.8 µM; with K-562 leukemia, 17.7 µM; in the assay on LOX IMVI melanoma, 5.94 µM; in the assay with OVCAR-3 ovarian, 16.4 µM; in the assay on TK-10 renal, 97.5 µM. Also, the TGI in the assay with SK-OV-3 ovarian was 29.4 µM; in the assay with SR leukemia, 9.05 µM; in the assay on HS 578T breast, 24.5 µM; in the assay on 786-0 renal, 15.6 µM; in the assay on UACC-62 melanoma, 18.2 µM; with SN12C renal it was 20.3 µM. This molecule also yielded a TGI in the assay on HT29 colon of 14.2 µM.

`Cc1c(C(=O)/C=C/c2c(Cl)cccc2Cl)c(=O)n(-c2ccccc2)n1C`: the TGI is over 100 µM with OVCAR-8 ovarian; 65.8 µM with HCC-2998 colon; over 100 µM in the assay on HCT-15 colon; over 100 µM with COLO 205 colon; over 100 µM with EKVX NSCLC; 41.8 µM in the assay with LOX IMVI melanoma. The TGI in the assay on OVCAR-3 ovarian is 73.5 µM; in the assay with TK-10 renal it was over 100 µM; in the assay on SK-OV-3 ovarian, over 100 µM; in the assay with 786-0 renal, 38.6 µM; in the assay with UACC-62 melanoma, over 100 µM; in the assay with SN12C renal, over 100 µM. In the assay with HT29 colon, the TGI is over 100 µM.

For the molecule `C/C=C1\CNC1C(=O)O` (stereo not given), the TGI in the assay with OVCAR-8 ovarian, in the assay on HCC-2998 colon, in the assay with HCT-15 colon, with COLO 205 colon, in the assay with EKVX NSCLC and in the assay with OVCAR-4 ovarian was over 100 µM in each case. For the same molecule, the TGI in the assay with HL-60(TB) leukemia, with K-562 leukemia, in the assay with LOX IMVI melanoma, with OVCAR-3 ovarian, with TK-10 renal and in the assay with SK-OV-3 ovarian was over 100 µM throughout. Besides, the TGI with HS 578T breast, in the assay with 786-0 renal, in the assay with UACC-62 melanoma, in the assay with SN12C renal and in the assay on HT29 colon was over 100 µM in each case.

In the case of `CCOC(=O)C(C(=O)OCC)=C1N[C@H](C(=O)OCC)CS1`, the TGI with OVCAR-8 ovarian, in the assay with HCC-2998 colon, in the assay with HCT-15 colon, in the assay with COLO 205 colon, with EKVX NSCLC and in the assay with OVCAR-4 ovarian was over 100 µM throughout. In addition, the TGI in the assay on M14 melanoma, in the assay with HL-60(TB) leukemia, in the assay on K-562 leukemia, in the assay with LOX IMVI melanoma, with OVCAR-3 ovarian and in the assay with SR leukemia was over 100 µM each time. Further, the TGI with 786-0 renal, in the assay with UACC-62 melanoma, in the assay on SN12C renal and with HT29 colon was over 100 µM in each case.
